Source: patent US20220046923A1, “HERBICIDAL CINNOLINIUM COMPOUNDS” (SYNGENTA CROP PROTECTION AG, priority 2018, published 2022)

How the values were obtained:
Assay in all cases: Post-emergence efficacy, glasshouse spray test
Format in all cases: in vivo
[1] = tested on: Euphorbia heterophylla (EPHHL); conditions: Euphorbia heterophylla, post-emergence, 312 h, evaluated after 13 days, read-out: Control of weed species EPHHL after post-emergence application (100=total damage to plant; 0=no damage to plant); for pest or weed control at 1000 g/ha: application rate 1000 g/Ha
Description: (§1) Seeds of a variety of test species were sown in standard soil in pots. After cultivation for 14 days (post-emergence) under controlled conditions in a glasshouse (at 24/16° C., day/night; 14 hours light; 65% humidity), the plants were sprayed with an aqueous spray solution derived from the dissolution of the technical active ingredient formula (I) in a small amount of acetone and a special solvent and emulsifier mixture referred to as IF50 (11.12% Emulsogen EL360 TM+44.44% N-methylpyrrolidone+44.44% Dowanol DPM glycol ether), to create a 50 g/l solution which was then diluted to required concentration using 0.25% or 1% Empicol ESC70 (Sodium lauryl ether sulphate)+1% ammonium sulphate as diluent. The test plants were then grown in a glasshouse under controlled conditions (at 24/16° C., day/night; 14 hours light; 65% humidity) and watered twice daily. After 13 days the test was evaluated (100=total damage to plant; 0=no damage to plant).
(§2) Ipomoea hederacea (IPOHE), Euphorbia heterophylla (EPHHL), Chenopodium album (CHEAL), Amaranthus palmeri (AMAPA), Lolium perenne (LOLPE), Digitaria sanguinalis (DIGSA), Eleusine indica (ELEIN), Echinochloa crus-galli (ECHCG), Setaria faberi (SETFA)

[2] = tested on: Ipomoea hederacea (IPOHE); conditions: Ipomoea hederacea, post-emergence, 312 h, evaluated after 13 days, read-out: Control of weed species IPOHE after post-emergence application (100=total damage to plant; 0=no damage to plant); for pest or weed control at 1000 g/ha: application rate 1000 g/Ha
Description: as §1, §2

[3] = tested on: Echinochloa crus-galli (ECHCG); conditions: Echinochloa crus-galli, post-emergence, 312 h, evaluated after 13 days, read-out: Control of weed species ECHCG after post-emergence application (100=total damage to plant; 0=no damage to plant); for pest or weed control at 1000 g/ha: application rate 1000 g/Ha
Description: as §1, §2

[4] = tested on: Amaranthus palmeri (AMAPA); conditions: Amaranthus palmeri, post-emergence, 312 h, evaluated after 13 days, read-out: Control of weed species AMAPA after post-emergence application (100=total damage to plant; 0=no damage to plant); for pest or weed control at 1000 g/ha: application rate 1000 g/Ha
Description: as §1, §2

[5] = tested on: Setaria faberi (SETFA); conditions: Setaria faberi, post-emergence, 312 h, evaluated after 13 days, read-out: Control of weed species SETFA after post-emergence application (100=total damage to plant; 0=no damage to plant); for pest or weed control at 1000 g/ha: application rate 1000 g/Ha
Description: as §1, §2

[6] = tested on: Eleusine indica (ELEIN); conditions: Eleusine indica, post-emergence, 312 h, evaluated after 13 days, read-out: Control of weed species ELEIN after post-emergence application (100=total damage to plant; 0=no damage to plant); for pest or weed control at 1000 g/ha: application rate 1000 g/Ha
Description: as §1, §2

[7] = tested on: Chenopodium album (CHEAL); conditions: Chenopodium album, post-emergence, 312 h, evaluated after 13 days, read-out: Control of weed species CHEAL after post-emergence application (100=total damage to plant; 0=no damage to plant); for pest or weed control at 1000 g/ha: application rate 1000 g/Ha
Description: as §1, §2

[8] = tested on: Digitaria sanguinalis (DIGSA); conditions: Digitaria sanguinalis, post-emergence, 312 h, evaluated after 13 days, read-out: Control of weed species DIGSA after post-emergence application (100=total damage to plant; 0=no damage to plant); for pest or weed control at 1000 g/ha: application rate 1000 g/Ha
Description: as §1, §2

[9] = tested on: Lolium perenne (LOLPE); conditions: Lolium perenne, post-emergence, 312 h, evaluated after 13 days, read-out: Control of weed species LOLPE after post-emergence application (100=total damage to plant; 0=no damage to plant); for pest or weed control at 1000 g/ha: application rate 1000 g/Ha
Description: as §1, §2

SMILES | pest or weed control at 1000 g/ha [1] [%] | pest or weed control at 1000 g/ha [2] [%] | pest or weed control at 1000 g/ha [3] [%] | pest or weed control at 1000 g/ha [4] [%] | pest or weed control at 1000 g/ha [5] [%] | pest or weed control at 1000 g/ha [6] [%] | pest or weed control at 1000 g/ha [7] [%] | pest or weed control at 1000 g/ha [8] [%] | pest or weed control at 1000 g/ha [9] [%] | pest or weed control at 500 g/ha ([1]; application rate 500 g/Ha) [%] | pest or weed control at 500 g/ha ([2]; application rate 500 g/Ha) [%] | pest or weed control at 500 g/ha ([3]; application rate 500 g/Ha) [%] | pest or weed control at 500 g/ha ([4]; application rate 500 g/Ha) [%] | pest or weed control at 500 g/ha ([5]; application rate 500 g/Ha) [%] | pest or weed control at 500 g/ha ([6]; application rate 500 g/Ha) [%] | pest or weed control at 500 g/ha ([7]; application rate 500 g/Ha) [%] | pest or weed control at 500 g/ha ([8]; application rate 500 g/Ha) [%] | pest or weed control at 500 g/ha ([9]; application rate 500 g/Ha) [%]
O=S(=O)([O-])N1CCC[C@H]1C[n+]1ccc2ccccc2n1 [Compound A47] | 60 | 20 | 30 | 100 | 40 | 90 | 60 | 90 | 10 | – | – | – | – | – | – | – | – | –
Cc1c[n+](CC(=O)[O-])nc2c(C)cccc12 [Compound A8] | 40 | 30 | 20 | 50 | 10 | 50 | 60 | 30 | 10 | – | – | – | – | – | – | – | – | –
Cc1c[n+](CCO)nc2ccccc12 [Compound A118] | 20 | 10 | 10 | 10 | 10 | 20 | 10 | 20 | 10 | – | – | – | – | – | – | – | – | –
O=S(=O)(O)CC[n+]1ccc2cc(-c3ccccc3)ccc2n1 [Compound A112] | 20 | 10 | 10 | 10 | 20 | 30 | 30 | 30 | 10 | – | – | – | – | – | – | – | – | –
O=S(=O)([O-])CC[n+]1ccc2cccc(F)c2n1 [Compound A84] | 100 | 50 | 20 | 100 | 50 | 70 | 70 | 60 | 50 | – | – | – | – | – | – | – | – | –
COC(=O)c1ccc2n[n+](CCS(=O)(=O)[O-])ccc2c1 [Compound A100] | – | – | – | – | – | – | – | – | – | 40 | 30 | 10 | 30 | 20 | 10 | 30 | 10 | 0
Cc1cc(C)c2n[n+](CC(=O)OC(C)C)cc(C)c2c1 [Compound A6, isopropyl 2-(4,6,8-trimethylcinnolin-2-ium-2-yl)acetate chloride] | 30 | 10 | 10 | 40 | 10 | 30 | 20 | 10 | 10 | – | – | – | – | – | – | – | – | –
